# Tests used:
# [1] = tested on: hemichannels formed by connexins (26 or 43); test: In vitro test of blocking the opening/activation of hemichannels; permeability tracer (ethidium) uptake in transfected HeLa cells; type: cell-based, Mouse; conditions: for % Inhibition Hemichannel activity (Cx26 o 43): inhibition of the permeability tracer at a concentration of 5 μM, HeLa cells transfected with connexins 26 or 43
# Protocol: The compounds are tested in experiments based on cells that are deficient in the expression of hemichannels and transfected with different connexins in order to evaluate and/or confirm their capacity of modulating the transport through the cellular membrane. The transport of permeability tracing molecules is evaluated and compared with the inhibitors of channels formed by connexins known, such as beta glycyrrhetinic acid (BGA) and carbenoxolone (CBX).
# (§1) The cells are incubated in an extracellular medium without divalent cations in order to increase the opening probability of hemichannels formed by connexins. In addition, as negative control parental cells not expressing hemichannels and cells transfected with panexine 1 and mechanically stimulated to induce the opening of the hemichannels formed by panexine 1.
# In vitro test of blocking the opening/activation of hemichannels formed by connexins (26 or 43).
# The capacity of the different tracing molecules was tested in vitro to evaluate the capacity of the compounds of reducing the transport of these molecules using the HeLa cells transfected with connexins 26 or 43.
# (§2) […] HeLa cells transfected with connexins 26 or 43 are used. In order to evaluate the activity of each compound over the connexin hemichannels, 10^3 HeLa cells transfected with connexins are shown by well in multi-well ([…]) plates 24 h before each experiment. Then, the cells are washed in a Locke solution that contains normal levels of divalent cations (Ca^2+ and Mg^2+) or a cation-free divalent Locke solution that contains 5 μm of ethidium bromide. Parallel to this, the cells are treated with different concentrations of each candidate compound and incubated for 5 min.
# (§3) As indicated by the scheme of FIG. 2, the HeLa cells transfected with connexin 43 (Cx43) are shown in multi-well (96) plates and after 24 h the ethidium uptake is evaluated in the presence of cation free solution (DCFS) in the presence or absence of the compound in question. The ethidium uptake is evaluated as the fluorescence emitted measured with a fluorometer. If the value of fluorescence in the presence of the inhibitor is equal or close to that measured in cells bathed with a solution that contains divalent cations, the compound corresponds to an inhibitor of hemichannels formed by connexins. On the contrary, if the fluorescence value emitted by cells exposed to a possible inhibitor in DCFS is equal to that of cells bathed only with DCFS (without the compound in question), the compound is not an inhibitor of hemichannels formed by connexins. The same test is performed with different concentrations of each compound in order to determine the minimum effective concentration (EC50).
# [2] = biological target: T1, gap junction channels formed by connexin 43 (Mus musculus, UniProt P23242); test: Cellular coupling assessed with the transfer of ethidium in HeLa-Cx43 cells; type: cell-based; conditions: for effect on gap junction channels (in words): connexin isoform and concentration not stated
# T1 construct: expressed in transfected cells; host or cells: HeLa
# Protocol: FIG. 6. Cellular coupling assessed with the transfer of ethidium. A. Effect of the different inhibitors in HeLa-Cx43 cells (transfected with connexin 43). B. Cellular coupling index.
# (§4) The molecules that inhibit the hemichannels formed by connexins are evaluated by their action on the hemichannels formed by panexine 1. The molecules inhibiting the hemichannels formed by connexins in the nanomolar range are studied as possible inhibitors of intercellular binding channels using the coupling technique to dyes and through electrophysiology using double fixing of voltage.
# [3] = biological target: T2, hemichannels formed by panexine 1 (Panx1) (Homo sapiens, UniProt Q96RD7); test: Functional status of panexine 1 hemichannels activated by mechanic stress; type: cell-based; conditions: for effect on hemichannels formed by panexines (in words): concentration not given
# T2 construct: expressed in transfected cells
# Protocol: FIG. 7. Functional status of the hemichannels formed by panexine1 (Panx1) driven by mechanic stress.
# as §1
# Therefore, the compound is an inhibitor of hemichannels formed by highly specific conexins.
# [4] = biological target: T3, gap junction channels formed by connexin 26 (Mus musculus, UniProt Q00977); test: Incidence of cellular coupling evaluated with microinjections of Lucifer yellow; type: cell-based; conditions: 1 nM; Lucifer yellow microinjection
# T3 construct: expressed in transfected cells; host or cells: HeLa
# Protocol: FIG. 5. Incidence percentage of coupling according to the time.
# as §4
# FIG. 5 depicts that the cells transfected with connexin 26 are very well coupled to gap junction channels. The incidence of the cellular coupling evaluated with microinjections of Lucifer yellow is close to 100% (black boxes).
# [5] = biological target: T4, hemichannels formed by connexin 43 (Mus musculus, UniProt P23242); test: Ethidium uptake in HeLa Cx43-EGFP cells induced by divalent cation free solution (DCFS); type: cell-based; conditions: for ethidium uptake speed or rate by minute (dye uptake) induced by DCFS: 10 nM
# T4 construct: expressed in transfected cells; host or cells: HeLa
# Protocol: FIG. 3. Ethidium uptake in HeLa Cx43-EGFP. Effect of DCFS. A: Cells in culture. B: Ethidium uptake chart in HeLa Cx43-EGFP. C: extracelular DCSF induces the inlet of ethidium in Cx43; the effect of DCSF is shown, which was blocked by the inhibiting molecule (MX) (10 nM), (P<0.05, n=4).
# as §2
# as §3, with “The same test is performed with different concentrations of each compound in order to determine the minimum effective concentration (EC50).” left out
# In FIG. 3, the upper left panel (A) corresponds to a phase microphotograph, where the HeLa cells can be noted that express connexin 43 conjugated with green fluorescent protein (EGFP) present in the microscopic field. […] Clearly, the inhibiting molecule inhibits the activity of hemichannels evaluated as dye uptake.
# [6] = biological target: T4, hemichannels formed by connexin 43; test: Unit currents of hemichannels in HeLa cells bathed in saline solution without Ca2+; type: cell-based; conditions: 10 nM
# Description: FIG. 4. Unit streams of the hemichannels formed by connexin 43 in HeLa cells bathed in saline solution without calcium ion (or Ca^2+) and in the presence of EGTA.
# Should the molecules not inhibit the intercellular channels formed by connexins in the millimolar range and not affect the hemichannels formed by panexine 1, its inhibiting effect of currents of hemichannels formed by connexins using the voltage fixing methodology in the modality of full cell.
# The unit currents of the hemichannels formed by connexin 43 are very frequent in the HeLa cells bathed with a saline solution without the calcium ion (or Ca^2+) (see FIG. 4, the two upper tracings).
# [7] = in vitro hemichannel blocking, connexins 26 or 43
# T4 sequence (P23242 whole entry): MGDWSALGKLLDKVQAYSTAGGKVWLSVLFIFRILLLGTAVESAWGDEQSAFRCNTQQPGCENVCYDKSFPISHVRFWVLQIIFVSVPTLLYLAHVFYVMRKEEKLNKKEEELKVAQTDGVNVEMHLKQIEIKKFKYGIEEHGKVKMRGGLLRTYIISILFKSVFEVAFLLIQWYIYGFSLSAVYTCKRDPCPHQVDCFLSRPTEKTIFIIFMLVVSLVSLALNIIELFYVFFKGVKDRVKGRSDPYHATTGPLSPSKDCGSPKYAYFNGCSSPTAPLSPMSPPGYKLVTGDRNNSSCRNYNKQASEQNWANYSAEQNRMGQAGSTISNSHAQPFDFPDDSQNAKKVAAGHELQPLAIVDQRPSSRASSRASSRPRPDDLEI
# T1 sequence (P23242 whole entry, canonical isoform): as the sequence (P23242 whole entry) above
# T2 sequence (Q96RD7 whole entry, species assumed): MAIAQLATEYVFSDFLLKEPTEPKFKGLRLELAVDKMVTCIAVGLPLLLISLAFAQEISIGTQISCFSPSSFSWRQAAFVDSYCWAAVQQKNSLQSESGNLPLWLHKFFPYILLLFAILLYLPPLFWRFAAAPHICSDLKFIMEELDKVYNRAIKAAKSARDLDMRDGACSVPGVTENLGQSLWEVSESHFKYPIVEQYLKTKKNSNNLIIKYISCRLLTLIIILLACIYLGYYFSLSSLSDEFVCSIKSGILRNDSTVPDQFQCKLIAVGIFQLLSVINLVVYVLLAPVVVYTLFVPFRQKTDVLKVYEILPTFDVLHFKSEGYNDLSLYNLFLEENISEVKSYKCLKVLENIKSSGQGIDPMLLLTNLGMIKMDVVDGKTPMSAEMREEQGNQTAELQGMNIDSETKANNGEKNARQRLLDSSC
smiles,measurement,setting,value
"Cc1cc(N2CCOCC2)nc2ccc(Cc3ccc4nc(N5CCOCC5)cc(C)c4c3)cc12 [Example 7 (G), bis(4-methyl-2-morfolinquinoline-6-yl)methane]",% Inhibition Hemichannel activity (Cx26 o 43),[1],0%
"C[C@]12C[C@@H](F)C(=O)C[C@@H]1CC[C@@H]1[C@@H]2CC[C@]2(C)[C@@H](OC(=O)c3ccccc3)CC[C@@H]12 [Example 4 (D), (2R,5S,8R,9S,10S,13S,14S,17S)-2-fluoro-10,13-dimethyl-3-oxohexadecahydro-1H-ciclopenta[a]fenantren-17-il benzoate]",effect on gap junction channels (in words),[2],do not affect
same,inhibition of hemichannels formed by connexins (in words),[1],potent inhibitors
same,IC50,[1]; [7],0.02 µM
same,efficacy,[1]; [7],100%
same,% Inhibition Hemichannel activity (Cx26 o 43),[1],100%
same,effect on hemichannels formed by panexines (in words),[3],do not affect
"O=C(O[C@@H](C(=O)c1ccc(Cl)cc1)c1ccccc1)c1ccc2ccccc2n1 [Example 1 (A), (R)-2-(4-chlorofenil)-2-oxo-1-fenilethylquinoline-2-carboxylate]",effect on gap junction channels (in words),[2],do not affect
same,inhibition of hemichannels formed by connexins (in words),[1],potent inhibitors
same,% Inhibition Hemichannel activity (Cx26 o 43),[1],0%
same,effect on hemichannels formed by panexines (in words),[3],do not affect
"O=C(O[C@@H](C(=O)c1ccc(Cl)cc1)c1ccccc1)c1ccc2ccccc2n1 [compound 4, (R)-2-(4-chlorofenil)-2-oxo-1-fenilethlyquinoline-2-caroxilate]","coupling incidence, gap junction channels formed by connexin 26",[4],does not significantly reduce
same,cellular coupling mediated with gap junction channels formed by connexin 43,"[2]; 1 nM, ethidium transfer, HeLa-Cx43",does not inhibit
same,ethidium uptake speed or rate by minute (dye uptake) induced by DCFS,[5],completely inhibited
same,ethidium uptake speed or rate by minute (dye uptake) induced by DCFS,[5]; listed as MX,blocked
same,reversal of the inhibition with the washing of DCFS,[5]; after 10 nM,partially reversed
same,functional status of Panx1 hemichannels activated by mechanic stress,[3]; 100 nM,not inhibited
same,activity (unit currents) of the hemichannels formed by connexin 43,[6],drastically inhibited
"Clc1ccc(N2CCN(CCCN3CCN(c4ccc(Cl)cc4)CC3)CC2)cc1 [Example 2 (B), 1,3-bis(4-(4-chlorofenil)piperazin-1-il)propane]",% Inhibition Hemichannel activity (Cx26 o 43),[1],20%
"O=C(O)C(Oc1ccc(-c2ccccc2)cc1)Oc1ccc(-c2ccccc2)cc1 [Example 3 (C), Acetic 2,2-bis([1,1′-bifenil]-4-iloxi) acid]",% Inhibition Hemichannel activity (Cx26 o 43),[1],0%
"C#C[C@]1(O)CC[C@H]2[C@@H]3CC=C4C[C@@H](OC(=O)CCC5CCCCC5)CC[C@]4(C)[C@H]3CC[C@@]21C [Example 6 (F), (3S,8R,9S,10R,13S,14S,17R)-17-ethynil-17-hydroxi-10,13-dimethyl-2,3,4,7,8,9,10,11,12,13,14,15,16,17-tetradecahydro-1H-ciclopenta[a]fenantren-3-yl 3-ciclohexilpropanoate]",% Inhibition Hemichannel activity (Cx26 o 43),[1],0%
"CC(=O)O[C@H]1CC[C@@]2(C)[C@@H](CC[C@@H]3[C@@H]2CC[C@]2(C)[C@@H](OC(=O)C4CCCCC4)CC[C@@H]32)C1 [Example 5 (E), (3S,5S,8R,9S,10S,13S,14S,17S)-3-acetoxi-10,13-dimethylhexadecahydro-1H-ciclopenta[a]fenantren-17-il ciclohexanocarboxilate]",efficacy,[1]; [7],100%
same,% Inhibition Hemichannel activity (Cx26 o 43),[1],100%
"CC1(C)[C@@H](OC(=O)CCC(=O)O)CC[C@]2(C)[C@H]3C(=O)C=C4[C@@H]5C[C@@](C)(C(=O)O)CC[C@]5(C)CC[C@@]4(C)[C@]3(C)CC[C@@H]12 [carbenoxolone, reference compound]",functional status of Panx1 hemichannels activated by mechanic stress,[3]; 5 μm,totally blocked
